In patent US20200308550A1, “TUMOR ORGANOID MODEL” (IMBA - INSTITUT FÜR MOLEKULARE BIOTECHNOLOGIE GMBH, priority 2017, published 2020):

What follows are compounds tested on GBM-1 neoplastic organoids including firefly luciferase (assay: Luciferase assay-based drug testing on neoplastic organoids). Details: 1 μM, forty days after drug treatment, vs DMSO.
Assay type: cell-based, human
Procedure: FIG. 13. […] Normalized luciferase activity was presented. Statistical analysis of quantifications was performed using one-way ANOVA with Dunnett's test. **, p<0.01.
For drug testing, neoplastic organoids were first grown for 2 months, followed by drug treatment for 40 days. […] After drug treatment, neoplastic organoids were trypsinized for single cell preparation, followed by FACS sorting analysis. Total cell numbers were counted to evaluate the cytotoxicity of the drugs.
In an effort toward adapting this method for large scale screening, we modified the neoplastic cerebral organoid system to include firefly luciferase for measurement of tumor size (FIG. 13a).
`C#Cc1cccc(Nc2ncnc3cc(OCCOC)c(OCCOC)cc23)c1` [Erlotinib] was tested, and the “relative firefly luciferase activity (tumor size)” value was “significantly reduced firefly luciferase activity”.
`CCOc1cc2ncc(C#N)c(Nc3ccc(F)c(Cl)c3)c2cc1NC(=O)/C=C/CN(C)C` [Pelitinib] was tested, and the “relative firefly luciferase activity (tumor size)” value was “only non-significant effects”.
For `C=CC(=O)Nc1cc2c(Nc3ccc(F)c(Cl)c3)ncnc2cc1OCCCN1CCOCC1` [Canertibib, Canertinib], the “relative firefly luciferase activity (tumor size)” value was “only non-significant effects”.
`COc1cc2ncnc(Nc3ccc(F)c(Cl)c3)c2cc1OCCCN1CCOCC1` [Gefitinib] was tested, and the “relative firefly luciferase activity (tumor size)” value was “only non-significant effects”.
